In ChEMBL document CHEMBL5375997, “Small Molecule Inhibitors Targeting the "Undruggable" Survivin: The Past, Present, and Future from a Medicinal Chemist's Perspective” (J Med Chem, 2023):

How the values were obtained:
PC-3 [1] = test: Cytotoxicity against human PC-3 cells assessed as reduction in cell growth incubated for 72 hrs by SRB assay; format: functional, cell-based; conditions: PC-3, 72 h
HepG2 = test: Cytotoxicity against human HepG2 cells assessed as reduction in cell viability incubated for 72 hrs by SRB assay; format: functional, cell-based; conditions: HepG2, 72 h
MDA-MB-231 = test: Cytotoxicity against human MDA-MB-231 cells assessed as inhibition of cell growth incubated for 72 hrs by SRB assay; format: functional, cell-based; conditions: MDA-MB-231, 72 h
NCI-H69 = test: Antiproliferative activity against human NCI-H69 cells assessed as reduction in cell growth; format: functional, cell-based
[2] = AUC in mouse plasma at 3 mg/kg, iv measured upto 24 hrs by LC-MS/MS analysis; format: ADME, organism-based; design: dose 3 mg/kg, time < 24 hrs, route iv; conditions: in vivo
[3] = Cytotoxicity against human HaCaT cells assessed as reduction in cell viability; format: toxicity, cell-based
[4] = Cmax in […] at 1 mg/kg, iv and measured upto 24 hrs by LC/MS/MS analysis; format: ADME, organism-based; design: time < 24 hrs, dose 1 mg/kg, route iv; conditions: in vivo
[5] = Oral bioavailability in mouse plasma; format: ADME, organism-based
[6] = Cmax in […] at 1 mg/kg, po and measured upto 24 hrs by LC/MS/MS analysis; format: ADME, organism-based; design: time < 24 hrs, dose 1 mg/kg, route po; conditions: in vivo
GBM528 (human) = test: Antiproliferative activity against human GBM528 cells assessed as sphere formation inhibition
LNCaP C4-2 [7] = test: Cytotoxicity against human LNCaP C4-2 cells assessed as cell growth inhibition incubated for 24 hrs by MTT assay; format: functional, cell-based; conditions: LNCaP C4-2, 24 h
LNCaP C4-2 [8] = test: Antiproliferative activity against human LNCaP C4-2 cells assessed as cell growth inhibition; format: functional, cell-based
PC-3 [9] = test: Cytotoxicity against human PC-3 cells assessed as reduction in cell viability incubated for 24 hrs by MTT assay; conditions: PC-3, 24 h
PC-3 [10] = test: Anticancer activity against human PC-3 cells assessed as cell growth inhibition by sulforhodamine B assay; format: functional, cell-based
DU-145 [11] = test: cells; conditions: Homo sapiens, DU-145, 24 h
Description: Cytotoxicity against human DU-145 cells assessed as inhibition of cell growth incubated for 24 hrs by MTT assay

EL4 = test: Cytotoxicity against mouse EL4 cells assessed as inhibition of cell proliferation incubated for 72 hrs by MTT assay; format: functional, cell-based; conditions: EL4, 72 h
L1210 = test: Antiproliferative activity against mouse L1210 cells assessed as reduction in cell viability incubated for 48 hrs by MTT assay; format: functional, cell-based; conditions: L1210, 48 h
HCT-116 [12] = test: Antiproliferative activity against human HCT-116 cells assessed as reduction in cell proliferation measured after 72 hrs by MTT assay; format: functional, cell-based; conditions: HCT-116, 72 h
SW-620 = test: Antiproliferative activity against human SW620 cells assessed as reduction in cell viability incubated for 72 hrs by MTT assay; format: functional, cell-based; conditions: SW-620, 72 h
EKVX = test: Antiproliferative activity against human EKVX cells assessed as cell growth inhibition incubated for 72 hrs by MTT assay; format: functional, cell-based
[13] = Half life in CD1 mouse at 1 mg/kg, iv by LC-MS/MS analysis; format: ADME, organism-based; conditions: in vivo
NCI-H460 = test: Antiproliferative activity against human NCI-H460 cells assessed as reduction in cell viability incubated for 24 hrs by MTT assay; format: functional, cell-based; conditions: NCI-H460, 24 h
HCT-8 = test: Antiproliferative activity against human HCT-8 cells assessed as inhibition of cell growth; format: functional, cell-based
A549 [14] = test: Antiproliferative activity against human A549 cells assessed as reduction in cell viability by MTT assay; format: functional, cell-based
[15] = Clearance in […] at 3 mg/kg, iv incubated for 24 hrs by LC-MS/MS analysis; format: ADME, organism-based; conditions: in vivo
DU-145 [16] = test: Cytotoxicity against human DU-145 cells assessed as inhibition of cell growth; format: functional, cell-based
A-375 [17] = test: Cytotoxicity against human A-375 cells assessed as inhibition of cell growth; format: functional, cell-based
M14 [18] = test: Antiproliferative activity against human M14 cells assessed as inhibition of cell growth measured after 48 hrs by SRB assay; format: functional, cell-based; conditions: M14, 48 h
M14 [19] = test: Antiproliferative activity against human M14 cells assessed as reduction cell viability incubated for 48 hrs by MTT assay; format: functional, cell-based; conditions: M14, 48 h
PC-3 [20] = test: Cytotoxicity against human PC-3 cells assessed as inhibition of cell growth; format: functional, cell-based
MCF7 = test: Cytotoxicity against human MCF7 cells assessed as inhibition of cell growth by MTT assay; format: functional, cell-based
A549 [21] = test: Cytotoxicity against human A549 cells assessed as reduction in cell viability by MTT assay; format: functional, cell-based
[22] = Cytotoxicity against human HepG2 cells assessed as reduction in cell viability by MTT assay; format: functional, cell-based
HCT-116 [23] = test: Cytotoxicity against human HCT-116 cells assessed as reduction in cell viability by MTT assay; format: functional, cell-based
HeLa = test: Cytotoxicity against human HeLa cells assessed as inhibition of cell growth by MTT assay; format: functional, cell-based
A-375 [24] = test: Anticancer activity against human A375 cells assessed as reduction in cell viability incubated for 72 hrs by MTT assay; format: functional, cell-based; conditions: A-375, 72 h
[25] = Half life in iv dosed human plasma; format: ADME, organism-based
SK-MEL-5 = test: Antiproliferative activity against human SK-MEL-5 cells assessed as reduction in cell viability; format: functional, cell-based
CWR22R = test: Cytotoxicity against human 22Rv1 cells assessed as cell growth inhibition; format: functional, cell-based
DU-145 [26] = test: Cytotoxicity against human DU-145 cells assessed as reduction in cell viability by SRB assay; format: functional, cell-based
[27] = Tmax in human plasma at 10 mg/kg, iv measured after 24 hrs; format: ADME, organism-based
[28] = Half life in human plasma after iv dosing; conditions: in vivo

COc1ccc(-c2cc(-c3ccc(OCc4ccc(F)cc4)cc3)[nH]c(=S)c2C#N)cc1
IC50 (PC-3 [1]): 23 µM
IC50 (HepG2): 23 µM
IC50 (MDA-MB-231): 23 µM

Oc1ccc(CCCCCc2ccc(O)c(O)c2)cc1O
IC50 (NCI-H69): 3 µM

N#Cc1c(-c2ccc(Br)cc2)cc(-c2ccc(OCc3ccc(F)cc3)cc2)[nH]c1=O
IC50 (PC-3 [1]): 14.4 µM
IC50 (HepG2): 14.4 µM
IC50 (MDA-MB-231): 14.4 µM

N#Cc1c(-c2ccc(Br)cc2)cc(-c2ccc(OCc3ccc(F)cc3)cc2)[nH]c1=S
IC50 (PC-3 [1]): 23 µM
IC50 (HepG2): 23 µM
IC50 (MDA-MB-231): 23 µM

COc1ccc(-c2cc(-c3ccc(OCc4ccc(F)cc4)cc3)[nH]c(=O)c2C#N)cc1
IC50 (PC-3 [1]): 4.46 µM
IC50 (HepG2): 6.01 µM
IC50 (MDA-MB-231): 3.59 µM

N#Cc1c(-c2ccc(F)cc2)cc(-c2ccc(OCc3ccc(F)cc3)cc2)[nH]c1=S
IC50 (PC-3 [1]): 23 µM
IC50 (HepG2): 23 µM
IC50 (MDA-MB-231): 23 µM

COc1ccc(C[C@@H](C)[C@@H](C)Cc2ccc(OC)c(OC)c2)cc1OC [TERAMEPROCOL]
AUC [2]: 2980 ng·h/mL
IC50 [3]: 85 µM
Cmax [4]: 1060 ng/mL
bioavailability [5]: 88.3%
Cmax [6]: 442 ng/mL

N#Cc1c(-c2cc(OCc3ccccc3)cc(OCc3ccccc3)c2)cc(-c2cc(Cl)ccc2O)[nH]c1=O
IC50 (GBM528 (human)): 31.2 µM

Nc1nonc1C(=O)N/N=C1\c2ccccc2-c2nc3nonc3nc21
IC50 (LNCaP C4-2 [7]): 1.9 µM
IC50 (LNCaP C4-2 [8]): 1.9 µM
IC50 (PC-3 [9]): 4.3 µM
IC50 (PC-3 [10]): 4.3 µM

N#Cc1c(-c2ccc(Cl)cc2)cc(-c2ccc(OCc3ccc(F)cc3)cc2)[nH]c1=S
IC50 (PC-3 [1]): 23 µM
IC50 (HepG2): 23 µM
IC50 (MDA-MB-231): 23 µM

Cc1cccc(Nc2nc3nonc3nc2N/N=C/c2ccc(-c3cccc(C(=O)O)c3)o2)c1C
IC50 (DU-145 [11]): 25 µM
IC50 (PC-3 [9]): 20 µM

N#Cc1c(-c2ccc(Br)cc2)cc(-c2ccc(OCc3ccc(F)cc3)cc2)nc1N
IC50 (PC-3 [1]): 30 µM
IC50 (HepG2): 30 µM
IC50 (MDA-MB-231): 30 µM

CO[C@]12CC(=O)O[C@]13C(=O)c1c(cc4cc(O)c5c(c4c1O)CN(C)C5=O)C(=O)[C@]3(O[C@H]1CC[C@H](O)[C@H](C)O1)CO2
IC50 (EL4): 0.112 µM
IC50 (L1210): 0.153 µM

CC[C@@]1(O)C(=O)OCc2c1cc1n(c2=O)Cc2cc3cc4c(cc3nc2-1)OCO4
IC50 (HCT-116 [12]): 0.005 µM
IC50 (SW-620): 0.009 µM
AUC [2]: 82 ng·h/mL
IC50 (EKVX): 0.006 µM
half-life [13]: 1.8 h
IC50 (NCI-H460): 0.003 µM
IC50 (HCT-8): 0.005 µM
IC50 (A549 [14]): 0.009 µM
clearance [15]: 900 mL/min/kg
Cmax [4]: 43 ng/mL

N#Cc1c(-c2ccccc2)cc(-c2ccc(OCc3ccc(F)cc3)cc2)[nH]c1=O
IC50 (PC-3 [1]): 14.4 µM
IC50 (HepG2): 14.4 µM
IC50 (MDA-MB-231): 14.4 µM

Cc1cccc(Nc2nc3nonc3nc2N/N=C/c2cc3c(cc2[N+](=O)[O-])OCO3)c1C
IC50 (DU-145 [11]): 2.6 µM
IC50 (PC-3 [9]): 2.1 µM

Oc1ccc(CCCCc2ccc(O)cc2)cc1
IC50 (NCI-H69): 3.9 µM

O=C1N=c2ccc(Nc3nc4nonc4nc3N/N=C/c3ccccc3OCc3ccc(Cl)cc3Cl)cc2=N1
IC50 (DU-145 [11]): 60.3 µM
IC50 (PC-3 [9]): 49.8 µM

COc1cccc(Nc2nc3ccccc3nc2Nc2cccc(OC)c2OC)c1OC
IC50 (LNCaP C4-2 [7]): 17.6 µM
IC50 (PC-3 [9]): 24.8 µM

Oc1c(CN2CCCC2)cc(COCc2ccccc2)c2cccnc12
IC50 (DU-145 [16]): 3.4 µM
IC50 (A-375 [17]): 1.6 µM
IC50 (M14 [18]): 3.2 µM
IC50 (M14 [19]): 2.5 µM
IC50 (PC-3 [20]): 0.7 µM

Cc1ccc(-c2ccc(/C=N/Nc3nc4nonc4nc3Nc3ccc(Br)cc3)o2)cc1Cl
IC50 (DU-145 [11]): 3.3 µM
IC50 (PC-3 [9]): 3.5 µM

Oc1cc(CCCCc2cc(O)c(O)c(O)c2)cc(O)c1O
IC50 (NCI-H69): 6 µM

COc1ccc(-c2cc(-c3ccc(OCc4ccc(F)cc4)cc3)nc(N)c2C#N)cc1
IC50 (PC-3 [1]): > 100 µM
IC50 (HepG2): > 100 µM
IC50 (MDA-MB-231): > 100 µM

N#Cc1c(-c2ccc(Cl)cc2)cc(-c2ccc(OCc3ccc(F)cc3)cc2)nc1N
IC50 (PC-3 [1]): > 100 µM
IC50 (HepG2): > 100 µM
IC50 (MDA-MB-231): > 100 µM

CC[C@@]1(O)C(=O)OCc2c1cc1n(c2=O)Cc2cc3c(-c4ccc(C(F)(F)F)cc4)c4c(cc3nc2-1)OCO4
IC50 (MCF7): 0.78 µM
IC50 (A549 [21]): 0.78 µM
IC50 [22]: 0.78 µM
IC50 (HCT-116 [23]): 0.78 µM
IC50 (HeLa): 0.78 µM

Oc1ccc(CCCc2ccc(O)c(O)c2)cc1O
IC50 (NCI-H69): > 100 µM

Cc1cccc(Nc2nc3nonc3nc2N/N=C/c2ccc(-c3ccc(Cl)c([N+](=O)[O-])c3)o2)c1C
IC50 (DU-145 [11]): 7.2 µM
IC50 (PC-3 [9]): 4.8 µM

N#Cc1c(-c2ccc(Cl)cc2)cc(-c2ccc(OCc3ccc(F)cc3)cc2)[nH]c1=O
IC50 (PC-3 [1]): 14.4 µM
IC50 (HepG2): 14.4 µM
IC50 (MDA-MB-231): 14.4 µM

N#Cc1c(-c2ccccc2)cc(-c2ccc(OCc3ccc(F)cc3)cc2)nc1N
IC50 (PC-3 [1]): > 100 µM
IC50 (HepG2): > 100 µM
IC50 (MDA-MB-231): > 100 µM

N#Cc1c(-c2ccc(F)cc2)cc(-c2ccc(OCc3ccc(F)cc3)cc2)[nH]c1=O
IC50 (PC-3 [1]): 14.4 µM
IC50 (HepG2): 14.4 µM
IC50 (MDA-MB-231): 14.4 µM

CCOC(=O)c1ccc(Nc2nc3nonc3nc2N/N=C/c2c[nH]nc2-c2ccccc2)cc1
IC50 (DU-145 [11]): 3.5 µM

N#Cc1c(-c2ccccc2)cc(-c2ccc(OCc3ccc(F)cc3)cc2)[nH]c1=S
IC50 (PC-3 [1]): 23 µM
IC50 (HepG2): 23 µM
IC50 (MDA-MB-231): 23 µM

COCCn1c2c([n+](Cc3cnccn3)c1C)C(=O)c1ccccc1C2=O.[Br-] [SEPANTRONIUM BROMIDE]
IC50 (A-375 [24]): 0.006 µM
half-life [25]: 26.3 h
AUC [2]: 1440 ng·h/mL
IC50 (SK-MEL-5): 0.004 µM
IC50 (CWR22R): 0.011 µM
IC50 (DU-145 [26]): 0.004 µM
clearance [15]: 795 mL/min/kg
Tmax [27]: 46 h
Cmax [4]: 10.7 ng/mL
half-life [28]: 17.2 h
